In one assay the target is T1, Adenosine receptor A2b (Homo sapiens, UniProt P29275).
T1 sequence (P29275 whole entry): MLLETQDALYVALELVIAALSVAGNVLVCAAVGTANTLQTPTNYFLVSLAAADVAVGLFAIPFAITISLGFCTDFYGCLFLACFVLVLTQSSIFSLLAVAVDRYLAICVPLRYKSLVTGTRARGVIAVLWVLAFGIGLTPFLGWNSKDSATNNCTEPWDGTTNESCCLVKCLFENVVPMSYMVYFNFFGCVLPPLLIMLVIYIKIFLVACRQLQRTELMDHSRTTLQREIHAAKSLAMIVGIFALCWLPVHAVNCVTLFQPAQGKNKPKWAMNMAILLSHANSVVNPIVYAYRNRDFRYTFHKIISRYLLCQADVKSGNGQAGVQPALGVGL
Nature of the assay: Inhibition of human adenosine A2B receptor expressed in HEK293 cells assessed as reduction in NECA-stimulated cAMP accumulation preincubated for 30 mins followed by NECA stimulation for 60 mins by FRET assay. Format: functional, cell-based. On the technique in general: Changes in cAMP serve as a functional read-out for many G protein-coupled receptors.

A further assay deals with Adenosine receptor A2a (Homo sapiens, UniProt P29274). Nature of the assay: Displacement of L0058RED from adenosine A2A receptor (unknown origin) in Tag-lite labeled cells measured after 45 mins by fluorescence based HTRF assay. The class given is cell-based. A general note: Time-resolved FRET reads energy transfer from a long-lived donor to a nearby acceptor.
Sequence of Adenosine receptor A2a (P29274 whole entry): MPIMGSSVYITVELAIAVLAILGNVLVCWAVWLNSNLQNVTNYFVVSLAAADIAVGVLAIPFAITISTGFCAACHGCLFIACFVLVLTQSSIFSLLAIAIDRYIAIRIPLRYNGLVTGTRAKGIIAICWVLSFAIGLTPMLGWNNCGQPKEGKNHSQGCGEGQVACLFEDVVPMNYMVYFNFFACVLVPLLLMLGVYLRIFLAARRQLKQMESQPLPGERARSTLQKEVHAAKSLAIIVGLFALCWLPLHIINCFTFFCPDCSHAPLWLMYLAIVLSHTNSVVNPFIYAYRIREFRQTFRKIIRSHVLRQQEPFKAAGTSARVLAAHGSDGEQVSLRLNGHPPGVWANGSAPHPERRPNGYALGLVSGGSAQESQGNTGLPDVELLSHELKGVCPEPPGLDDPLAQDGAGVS

By EC50 is commonly meant the concentration giving half of the maximal effect. Usually Ki stands for a dissociation constant, usually derived from enzyme kinetics or from competition with a known ligand. A higher Ki goes with weaker binding. Turning to `Cn1nccc1-c1c(-c2cccc(C#N)c2F)nc(N)c2nn(Cc3ccccn3)nc12`, the EC50 at Adenosine receptor A2b is at most 0.01 µM. This molecule registered a Ki at Adenosine receptor A2a of at most 0.01 µM.

`N#Cc1cccc(-c2nc(N)n3nc(Cc4cccnc4)nc3c2-c2ccncn2)c1`: the EC50 at Adenosine receptor A2b is at most 0.01 µM. The molecule further returned a Ki on Adenosine receptor A2a of at most 0.01 µM.

For the molecule `N#Cc1cccc(-c2nc(N)c3nn(Cc4ncccc4F)nc3c2-c2ccncc2)c1`, the EC50 at Adenosine receptor A2b was at most 0.01 µM. The molecule also returned a Ki at Adenosine receptor A2a of at most 0.01 µM.

For `N#Cc1cccc(-c2nc(N)n3nc(C(O)c4c(F)cccc4F)nc3c2C#N)c1F` (configuration not stated), at Adenosine receptor A2b, the EC50 is at most 0.01 µM. Further, the Ki at Adenosine receptor A2a is at most 0.01 µM.

For the molecule `Cc1ncoc1-c1c(-c2cccc(C#N)c2)nc(N)c2nc(C(N)c3c(F)cccc3F)nn12` (configuration not stated), the EC50 on Adenosine receptor A2b was at most 0.01 µM. Moreover, the Ki on Adenosine receptor A2a is at most 0.01 µM.

Take `N#Cc1cccc(-c2cc3nc(C(O)c4c(F)cccc4F)nn3c(N)n2)c1F` (configuration not stated): the EC50 on Adenosine receptor A2b is at most 0.01 µM. Besides, the Ki on Adenosine receptor A2a was at most 0.01 µM.
